US4731109A, “Herbicidal 2-haloacetanilides” (Monsanto Company, priority 1982, dated 1988)
Read-outs that look alike come from different tables or passages of the source.

Assays:
Assay type in all cases: in vivo
[1] = test system: Quackgrass; test: Greenhouse pre-emergence GR15/GR85 selectivity test
[2] = test system: Yellow Nutsedge; test: as above
[3] = test system: cotton; test: as above
Description: A good grade of top soil is placed in aluminum pans and compacted to a depth of three-eighths to one-half inch from the top of the pan. On the top of the soil is placed a number of seeds or vegetative propagules of various plant species. The soil required to level fill the pans after seeding or adding vegetative propagules is weighed into a pan. The soil and a known amount of the active ingredient applied in a solvent or as a wettable powder suspension are thoroughly mixed, and used to cover the prepared pans. After treatment, the pans are given an initial overhead irrigation of eater, equivalent to one-fourth inch (0.64 cm) rainfall, then watered by subirrigation as need to give adequate moisture for germination and growth. As an alternative procedure, the overhead irrigation may be omitted. Observations are made about 2-3 weeks after seeding and treatment.
In the discussion and tables of data below, reference is made to herbicide application rates symbolized as "GR15 " and "GR85 "; these rates are given in kilograms per hectare (kg/ha) which are convertible into pounds per acre (lbs/A) by dividing the kg/ha rate by 1.12.
A further guide to the effectiveness of a chemical as a selective herbicide is the "selectivity factor" ("SF") for a herbicide in given crops and weeds. The selectivity factor is a measure of the relative degree of crop safety and weed injury and is expressed in terms of the GR15 /GR85 ratio, i.e., the GR15 rate for the crop divided by the GR85 rate for the weed, both rates in kg/ha (lb/A). In the tables below, selectivity factors are shown in parenthesis following the GR85 rate for each weed; the symbol "NS" indicates "non-selective". Marginal or undetermined selectivity is indicated by a dash (--).
Additionally, pre-emergence herbicidal data from other tests have established that compounds according to this invention also selectively suppress quackgrass, yellow nutsedge and/or other weeds in one or more of the crops cotton, peanuts, bush beans and/or rape. For example, in Table VI are presented data showing the herbicidal selectivity of the compounds of Examples 1 and 2 against quackgrass in rape and snap beans. Unless otherwise noted; greenhouse tests in Table VI and in other tables below involved herbicide treatments by soil incorporation and an initial overhead irrigation followed by subirrigation as described above.
In one multi-crop test in the greenhouse, the compounds of Examples 1, 9, and 10 were tested against yellow nutsedge in cotton, soybeans, corn and rice; each compound was non-selective with respect to yellow nutsedge in rice. However, markedly high selectivities for yellow nutsedge in cotton, soybeans and corn were shown for each of the compounds in the test; the respective GR15 and GR85 rates for these compounds are shown in Table XII selectivity factors are shown in parenthesis after each crop.

[4] = test system: common ragweed; test: as above; conditions: Table XV
Method in brief: (§1)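 Pre-emergence soil-incorporation test: seeded pans were covered with topsoil mixed with active ingredient (in solvent or as wettable powder), overhead-irrigated (0.64 cm) or not, then subirrigated. Plants were scored about 2-3 weeks after treatment. GR15/GR85 rates are in kg/ha, and selectivity factor is crop GR15 divided by weed GR85.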

[5] = test system: prickly sida; test: as above; conditions: Table XV
Method in brief: as §1

[6] = test system: common purslane; test: as above; conditions: Table XV
Method in brief: as §1

[7] = test system: Barnyardgrass; test: Resistance to leaching and resulting herbicidal efficacy; conditions: for inhibition at 140 g/ha / inhibition at 560 g/ha / inhibition at 2200 g/ha: Echinochloa crus-galli, read-out: Percent Inhibition
Method in brief: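 Treated soil in pots leached under simulated rainfall (one inch (2.5 cm) water per hour, duration varied), held three days at ambient temperature, then laid as surface layer over barnyardgrass-seeded pots. After 2-3 weeks in greenhouse, visual percent growth inhibition versus untreated controls and fresh weights recorded; three replications per compound.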

[8] = quackgrass in corn, Table IV, Replicate #2
[9] = quackgrass in soybeans, Table IV, Replicate #2
[10] = quackgrass in soybeans, Table XIII
[11] = yellow nutsedge in corn, Table IV, Replicate #2
[12] = yellow nutsedge in corn, Table XII
[13] = yellow nutsedge in cotton, Table XII
[14] = yellow nutsedge in soybeans, Table IV, Replicate #2
[15] = yellow nutsedge in soybeans, Table XII
[16] = Ray silt loam, 0.14 Kg/Ha, rain 0 cm
[17] = Ray silt loam, 0.14 Kg/Ha, rain 1.27 cm
[18] = Ray silt loam, 0.14 Kg/Ha, rain 5.08 cm
[19] = Ray silt loam, 0.56 Kg/Ha, rain 0 cm
[20] = Ray silt loam, 0.56 Kg/Ha, rain 1.27 cm
[21] = Ray silt loam, 0.56 Kg/Ha, rain 5.08 cm
[22] = Ray silt loam, 0.56 Kg/Ha, rain 10.16 cm
[23] = Ray silt loam, 2.2 Kg/Ha, rain 0 cm
[24] = Ray silt loam, 2.2 Kg/Ha, rain 1.27 cm
[25] = Ray silt loam, 2.2 Kg/Ha, rain 5.08 cm
[26] = Ray silt loam, 2.2 Kg/Ha, rain 10.16 cm
[27] = Ray silt loam, 0.14 Kg/Ha, rain 10.16 cm

CCOCN(C(=O)CCl)c1c(CC)cccc1C(F)(F)F [Example 9, N--(ethoxymethyl)-2'-trifluoromethyl-6'-ethyl-2-chloroacetanilide]
GR85 ([1]; Table IV, Replicate #2): 0.20 Kg/Ha | GR85 ([1]; Table XIII): 0.36 Kg/Ha | selectivity against quackgrass in wheat [1]: non-selective | selectivity factor (GR15/GR85) [1, 8]: 11 | selectivity factor (GR15/GR85) ([1]; quackgrass in corn, Table XIII): 4.7 | selectivity factor (GR15/GR85) [1, 9]: 10.5 | selectivity factor (GR15/GR85) [1, 10]: 4.7 | GR85 ([2]; Table IV, Replicate #2): 0.17 Kg/Ha | GR85 ([2]; Table XII): 0.21 Kg/Ha | GR85 ([2]; in cotton): 0.47 kg/ha | S.F. (GR15/GR85) ([2]; in cotton): 1.5 | selectivity with respect to yellow nutsedge in rice [2]: non-selective | selectivity factor (GR15/GR85) [2, 11]: 13 | selectivity factor (GR15/GR85) [2, 12]: 12 | selectivity factor (GR15/GR85) [2, 13]: 12 | selectivity factor (GR15/GR85) [2, 14]: 12.5 | selectivity factor (GR15/GR85) [2, 15]: 9.5 | GR15 ([3]; Table XII): 2.5 Kg/Ha | GR15 ([3]; cotton/yellow nutsedge): 0.7 kg/ha | GR85 Rate [4]: > 1.12 Kg/Ha | selectivity factor (GR15/GR85) ([4]; in rape): NS (non-selective) | GR85 Rate [5]: > 1.12 Kg/Ha | selectivity factor (GR15/GR85) ([5]; in rape): NS (non-selective) | GR85 Rate [6]: 0.78 Kg/Ha | selectivity factor (GR15/GR85) ([6]; in rape): 1.3

CCOCN(C(=O)CCl)c1c(C)cccc1C(F)(F)F [Example 1, N-(ethoxymethyl)-2'-trifluoromethyl-6'-methyl-2-chloroacetanilide]
inhibition at 140 g/ha ([7]; Drummer silt clay, 0.14 Kg/Ha, rain 0 cm): 100% | inhibition at 140 g/ha ([7]; Drummer silt clay, 0.14 Kg/Ha, rain 1.27 cm): 97% | inhibition at 140 g/ha ([7]; Drummer silt clay, 0.14 Kg/Ha, rain 5.08 cm): 95% | inhibition at 140 g/ha ([7]; Drummer silt clay, 0.14 Kg/Ha, rain 10.16 cm): 20% | inhibition at 560 g/ha ([7]; Drummer silt clay, 0.56 Kg/Ha, rain 0 cm): 100% | inhibition at 560 g/ha ([7]; Drummer silt clay, 0.56 Kg/Ha, rain 1.27 cm): 100% | inhibition at 560 g/ha ([7]; Drummer silt clay, 0.56 Kg/Ha, rain 5.08 cm): 100% | inhibition at 560 g/ha ([7]; Drummer silt clay, 0.56 Kg/Ha, rain 10.16 cm): 100% | inhibition at 2200 g/ha ([7]; Drummer silt clay, 2.2 Kg/Ha, rain 0 cm): 100% | inhibition at 2200 g/ha ([7]; Drummer silt clay, 2.2 Kg/Ha, rain 1.27 cm): 100% | inhibition at 2200 g/ha ([7]; Drummer silt clay, 2.2 Kg/Ha, rain 5.08 cm): 100% | inhibition at 2200 g/ha ([7]; Drummer silt clay, 2.2 Kg/Ha, rain 10.16 cm): 100% | inhibition at 140 g/ha [7, 16]: 95% | inhibition at 140 g/ha [7, 17]: 96% | inhibition at 140 g/ha [7, 18]: 58% | inhibition at 560 g/ha [7, 19]: 100% | inhibition at 560 g/ha [7, 20]: 100% | inhibition at 560 g/ha [7, 21]: 70% | inhibition at 560 g/ha [7, 22]: 33% | inhibition at 2200 g/ha [7, 23]: 100% | inhibition at 2200 g/ha [7, 24]: 100% | inhibition at 2200 g/ha [7, 25]: 95% | inhibition at 2200 g/ha [7, 26]: 35% | inhibition at 140 g/ha [7, 27]: 20% | Fresh Weight [7, 16]: 0.20 Grams | Fresh Weight [7, 17]: 0.17 Grams | Fresh Weight [7, 18]: 1.74 Grams | Fresh Weight [7, 27]: 3.26 Grams | Fresh Weight [7, 19]: 0 Grams | Fresh Weight [7, 20]: 0 Grams | Fresh Weight [7, 21]: 1.21 Grams | Fresh Weight [7, 22]: 2.73 Grams | Fresh Weight [7, 23]: 0 Grams | Fresh Weight [7, 24]: 0 Grams | Fresh Weight [7, 25]: 0.20 Grams | Fresh Weight [7, 26]: 2.65 Grams | GR85 ([1]; Table IV, Replicate #1): 0.18 Kg/Ha | GR85 ([1]; Table IV, Replicate #2): 0.16 Kg/Ha | GR85 ([1]; Table V): 0.08 Kg/Ha | selectivity factors relative to prior art compounds ([1]; Table V, quackgrass and yellow nutsedge in corn and soybeans): exceedingly higher selectivity factors | GR85 Rate ([1]; Table VI): 0.12 Kg/Ha | GR85 ([1]; Table XIII): 0.07 Kg/Ha | selectivity against quackgrass in wheat [1]: non-selective | selectivity factor (GR15/GR85) ([1]; quackgrass in corn, Table IV, Replicate #1): 4 | selectivity factor (GR15/GR85) [1, 8]: 5 | selectivity factor (GR15/GR85) ([1]; quackgrass in corn, Table V): 27.5 | selectivity factor (GR15/GR85) ([1]; quackgrass in corn, Table XIII): 10 | selectivity factor (GR15/GR85) ([1]; quackgrass in rape, Table VI): 7 | selectivity factor (GR15/GR85) ([1]; quackgrass in snapbeans, Table VI): 7 | selectivity factor (GR15/GR85) ([1]; quackgrass in soybeans, Table IV, Replicate #1): 17 | selectivity factor (GR15/GR85) [1, 9]: 14 | selectivity factor (GR15/GR85) ([1]; quackgrass in soybeans, Table V): 35 | selectivity factor (GR15/GR85) [1, 10]: 11.6 | GR85 ([2]; Table IV, Replicate #1): 0.20 Kg/Ha | GR85 ([2]; Table IV, Replicate #2): 0.12 Kg/Ha | GR85 ([2]; Table V): 0.10 Kg/Ha | GR85 ([2]; Table XII): 0.24 Kg/Ha | selectivity with respect to yellow nutsedge in rice [2]: non-selective | selectivity factor (GR15/GR85) ([2]; yellow nutsedge in corn, Table IV, Replicate #1): 4 | selectivity factor (GR15/GR85) [2, 11]: 6 | selectivity factor (GR15/GR85) ([2]; yellow nutsedge in corn, Table V): 22 | selectivity factor (GR15/GR85) [2, 12]: 2.9 | selectivity factor (GR15/GR85) [2, 13]: 8 | selectivity factor (GR15/GR85) ([2]; yellow nutsedge in soybeans, Table IV, Replicate #1): 15 | selectivity factor (GR15/GR85) [2, 14]: 18 | selectivity factor (GR15/GR85) ([2]; yellow nutsedge in soybeans, Table V): 28 | selectivity factor (GR15/GR85) [2, 15]: 3.6 | GR15 ([3]; Table XII): 2.0 Kg/Ha
